Experimental data published in ChEMBL document CHEMBL1201862, “PubChem BioAssay data set” (2004).
Values belong to the molecule of their own block, whether it stands above or below them. Activity calls are given as the source filed them.

What was measured:
[1] = molecular target: T1, Voltage-gated N-type calcium channel alpha-1B subunit/Amyloid beta A4 precursor protein-binding family A member 1 (Homo sapiens, UniProt Q00975+Q02410); type: protein assay
[2] = molecular target: T1, Voltage-gated N-type calcium channel alpha-1B subunit/Amyloid beta A4 precursor protein-binding family A member 1; type: protein assay; remark: listed apart in the source
[3] = system: T-cell; assay: loss of vesicle association with mouse CD8+ T cells – mouse 2C CD8+ T cells, flow cytometry, dose response (AID 485284); type: functional
[4] = molecular target: Mu-type opioid receptor (Homo sapiens, UniProt P35372); assay: SAR Analysis of Antagonists of the MOR Receptor using an Image-Based Assay - Set 3. [Related pubchem assays (depositor defined):AID1777, AID1785, AID1786, AID1966, AID2133, AID2136, AID2284, AID2285, AID2420]; type: functional
Sequence of Mu-type opioid receptor (P35372 whole entry): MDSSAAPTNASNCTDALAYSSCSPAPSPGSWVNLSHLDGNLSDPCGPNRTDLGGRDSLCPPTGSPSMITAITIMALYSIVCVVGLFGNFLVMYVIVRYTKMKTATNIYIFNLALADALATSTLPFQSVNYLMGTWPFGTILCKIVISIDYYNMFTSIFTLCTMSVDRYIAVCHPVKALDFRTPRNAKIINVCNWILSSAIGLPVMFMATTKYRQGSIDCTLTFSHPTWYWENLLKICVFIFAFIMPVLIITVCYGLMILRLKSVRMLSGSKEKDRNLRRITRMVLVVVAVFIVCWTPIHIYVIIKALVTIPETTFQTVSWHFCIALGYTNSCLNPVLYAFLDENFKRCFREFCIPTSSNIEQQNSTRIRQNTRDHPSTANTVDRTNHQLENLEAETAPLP

[5] = molecular target: Delta-type opioid receptor (Homo sapiens, UniProt P41143); assay: SAR Analysis of Antagonists of the DOR Receptor using an Image-Based Assay - Set 3. [Related pubchem assays (depositor defined):AID1777, AID1785]; type: functional;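 note: U2OS cells expressing DOR1 and beta-arrestin GFP stimulated with 100 nM SNC80; imaging of GFP-tagged beta-arrestin moving into spots after receptor activation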
Sequence of Delta-type opioid receptor (P41143 whole entry): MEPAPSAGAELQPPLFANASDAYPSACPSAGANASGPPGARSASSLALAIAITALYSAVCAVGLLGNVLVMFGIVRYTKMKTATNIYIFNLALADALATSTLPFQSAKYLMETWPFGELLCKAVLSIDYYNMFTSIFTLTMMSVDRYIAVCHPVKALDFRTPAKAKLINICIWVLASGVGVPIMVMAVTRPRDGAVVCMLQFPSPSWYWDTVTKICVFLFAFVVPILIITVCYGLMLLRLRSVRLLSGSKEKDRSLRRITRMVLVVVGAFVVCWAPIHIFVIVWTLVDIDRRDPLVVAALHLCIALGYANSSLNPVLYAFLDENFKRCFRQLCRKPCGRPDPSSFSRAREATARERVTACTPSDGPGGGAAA

[6] = molecular target: T2, Kappa-type opioid receptor (Homo sapiens, UniProt P41145); assay: SAR analysis of small molecule antagonists of the kappa opioid receptor via a luminescent beta-arrestin assay - Set 3. [Related pubchem assays (depositor defined):AID1777, AID1778, AID1785, AID1786, AID1966, AID2133, AID2136, AID2285, AID2495]; type: functional
T2 sequence (P41145 whole entry): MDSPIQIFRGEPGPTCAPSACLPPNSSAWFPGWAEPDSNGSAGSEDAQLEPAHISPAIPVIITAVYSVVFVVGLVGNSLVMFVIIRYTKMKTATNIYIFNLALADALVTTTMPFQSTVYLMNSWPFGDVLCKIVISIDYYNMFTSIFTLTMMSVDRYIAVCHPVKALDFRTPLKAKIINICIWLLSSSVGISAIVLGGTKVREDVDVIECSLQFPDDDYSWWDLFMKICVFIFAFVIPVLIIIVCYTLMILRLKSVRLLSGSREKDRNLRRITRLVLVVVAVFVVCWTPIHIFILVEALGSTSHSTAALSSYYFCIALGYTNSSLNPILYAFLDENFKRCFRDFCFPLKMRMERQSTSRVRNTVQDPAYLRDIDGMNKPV

[7] = molecular target: T2, Kappa-type opioid receptor; assay: SAR analysis of Antagonists of the Kappa Opioid Receptor (KOR) using an Image-Based Assay - Set 3. [Related pubchem assays (depositor defined):AID1777, AID1785]; type: functional
[8] = molecular target: Alkaline phosphatase, placental type (Homo sapiens, UniProt P05187); assay: human placental alkaline phosphatase inhibition – biochemical, luminescence, confirmation (AID 1512); type: functional
Sequence of Alkaline phosphatase, placental type (P05187 whole entry): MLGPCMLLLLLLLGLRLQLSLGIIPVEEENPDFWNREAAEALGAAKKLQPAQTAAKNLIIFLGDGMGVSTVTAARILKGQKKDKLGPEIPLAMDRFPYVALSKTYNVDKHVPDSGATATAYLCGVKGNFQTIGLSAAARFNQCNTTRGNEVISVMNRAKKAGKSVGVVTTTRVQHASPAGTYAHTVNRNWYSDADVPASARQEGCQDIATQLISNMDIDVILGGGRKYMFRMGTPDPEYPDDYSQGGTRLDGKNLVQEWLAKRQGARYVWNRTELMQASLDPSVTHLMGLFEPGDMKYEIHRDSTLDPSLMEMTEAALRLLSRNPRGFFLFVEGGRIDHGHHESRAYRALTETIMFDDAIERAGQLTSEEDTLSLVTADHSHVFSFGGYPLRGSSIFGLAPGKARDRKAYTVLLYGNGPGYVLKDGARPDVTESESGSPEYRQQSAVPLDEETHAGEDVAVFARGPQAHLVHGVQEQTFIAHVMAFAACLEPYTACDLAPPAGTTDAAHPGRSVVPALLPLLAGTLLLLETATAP

[9] = molecular target: T3, Alkaline phosphatase, tissue-nonspecific isozyme (Homo sapiens, UniProt P05186); assay: potency against alkaline phosphatase TNAP – biochemical, luminescent, dose response, SAR follow-up (AID 1056)
T3 sequence (P05186 whole entry): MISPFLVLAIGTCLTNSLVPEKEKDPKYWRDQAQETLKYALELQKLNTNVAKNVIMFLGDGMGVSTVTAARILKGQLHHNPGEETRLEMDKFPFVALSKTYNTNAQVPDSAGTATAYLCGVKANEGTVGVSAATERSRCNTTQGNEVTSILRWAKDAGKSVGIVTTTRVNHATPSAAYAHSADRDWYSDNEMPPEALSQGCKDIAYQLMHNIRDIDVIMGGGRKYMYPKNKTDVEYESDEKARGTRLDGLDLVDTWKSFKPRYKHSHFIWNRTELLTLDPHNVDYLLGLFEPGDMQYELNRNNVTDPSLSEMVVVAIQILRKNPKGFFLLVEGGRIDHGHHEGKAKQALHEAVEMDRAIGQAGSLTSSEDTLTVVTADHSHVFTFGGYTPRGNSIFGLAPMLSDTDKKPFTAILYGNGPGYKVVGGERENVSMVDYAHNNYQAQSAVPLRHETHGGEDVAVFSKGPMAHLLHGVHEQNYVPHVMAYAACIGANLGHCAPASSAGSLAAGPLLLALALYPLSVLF

T1 sequence (Q00975 whole entry): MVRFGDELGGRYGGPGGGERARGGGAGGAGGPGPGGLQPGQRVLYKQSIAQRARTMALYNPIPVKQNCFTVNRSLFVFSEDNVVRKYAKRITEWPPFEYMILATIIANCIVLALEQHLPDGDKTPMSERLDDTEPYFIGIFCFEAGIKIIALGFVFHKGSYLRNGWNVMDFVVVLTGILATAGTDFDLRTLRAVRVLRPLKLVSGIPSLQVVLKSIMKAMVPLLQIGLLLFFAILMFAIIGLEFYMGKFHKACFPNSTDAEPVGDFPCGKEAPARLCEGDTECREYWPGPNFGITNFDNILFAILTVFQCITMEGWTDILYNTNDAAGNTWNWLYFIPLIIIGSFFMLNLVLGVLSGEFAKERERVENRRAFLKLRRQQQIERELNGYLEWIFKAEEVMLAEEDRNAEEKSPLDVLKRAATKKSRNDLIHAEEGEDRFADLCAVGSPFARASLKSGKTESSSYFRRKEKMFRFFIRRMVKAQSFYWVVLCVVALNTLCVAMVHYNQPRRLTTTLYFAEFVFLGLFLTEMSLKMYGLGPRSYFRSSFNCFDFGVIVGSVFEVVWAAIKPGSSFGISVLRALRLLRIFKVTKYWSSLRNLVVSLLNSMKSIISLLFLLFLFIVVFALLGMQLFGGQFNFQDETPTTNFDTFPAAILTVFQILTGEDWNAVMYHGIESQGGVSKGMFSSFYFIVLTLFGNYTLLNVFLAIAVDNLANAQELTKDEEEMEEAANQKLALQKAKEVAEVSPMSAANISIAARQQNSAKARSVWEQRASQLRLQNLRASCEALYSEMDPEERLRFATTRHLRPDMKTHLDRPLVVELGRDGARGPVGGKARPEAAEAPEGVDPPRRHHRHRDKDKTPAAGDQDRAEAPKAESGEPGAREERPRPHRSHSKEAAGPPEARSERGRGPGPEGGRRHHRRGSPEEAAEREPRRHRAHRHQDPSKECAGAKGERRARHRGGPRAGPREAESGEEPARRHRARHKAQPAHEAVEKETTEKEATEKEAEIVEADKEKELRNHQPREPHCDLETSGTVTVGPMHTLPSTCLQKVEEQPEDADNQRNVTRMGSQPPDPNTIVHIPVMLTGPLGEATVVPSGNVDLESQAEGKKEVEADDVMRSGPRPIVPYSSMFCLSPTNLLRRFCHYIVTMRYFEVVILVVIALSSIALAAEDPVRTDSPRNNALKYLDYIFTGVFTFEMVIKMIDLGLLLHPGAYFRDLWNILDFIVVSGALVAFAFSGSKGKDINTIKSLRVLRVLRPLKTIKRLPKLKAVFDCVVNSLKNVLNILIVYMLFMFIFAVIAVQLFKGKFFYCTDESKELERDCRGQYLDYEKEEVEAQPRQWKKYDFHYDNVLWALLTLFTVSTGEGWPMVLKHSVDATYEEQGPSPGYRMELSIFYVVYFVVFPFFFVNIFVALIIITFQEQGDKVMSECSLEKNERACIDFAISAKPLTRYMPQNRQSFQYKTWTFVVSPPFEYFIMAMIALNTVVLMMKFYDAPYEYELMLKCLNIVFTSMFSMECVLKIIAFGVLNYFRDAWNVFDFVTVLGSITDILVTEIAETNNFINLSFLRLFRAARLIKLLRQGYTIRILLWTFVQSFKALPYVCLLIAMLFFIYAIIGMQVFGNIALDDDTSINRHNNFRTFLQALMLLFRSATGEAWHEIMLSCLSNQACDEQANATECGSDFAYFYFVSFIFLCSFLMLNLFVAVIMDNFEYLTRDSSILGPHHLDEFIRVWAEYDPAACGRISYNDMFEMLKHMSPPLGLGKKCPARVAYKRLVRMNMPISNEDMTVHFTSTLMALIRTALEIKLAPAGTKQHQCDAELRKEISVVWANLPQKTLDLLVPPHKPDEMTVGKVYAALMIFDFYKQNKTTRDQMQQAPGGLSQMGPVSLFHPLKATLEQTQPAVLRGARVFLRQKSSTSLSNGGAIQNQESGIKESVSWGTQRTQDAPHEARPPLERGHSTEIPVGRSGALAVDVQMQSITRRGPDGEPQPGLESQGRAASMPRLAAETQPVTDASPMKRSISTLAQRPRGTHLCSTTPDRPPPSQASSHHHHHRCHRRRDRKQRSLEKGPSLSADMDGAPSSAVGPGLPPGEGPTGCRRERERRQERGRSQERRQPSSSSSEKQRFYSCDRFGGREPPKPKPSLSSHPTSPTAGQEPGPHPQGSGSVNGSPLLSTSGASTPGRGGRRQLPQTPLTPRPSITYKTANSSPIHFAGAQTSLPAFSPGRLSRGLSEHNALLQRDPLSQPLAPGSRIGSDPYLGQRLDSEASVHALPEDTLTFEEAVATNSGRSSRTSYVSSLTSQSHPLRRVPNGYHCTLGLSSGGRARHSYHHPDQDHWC
T1 sequence (Q02410 whole entry): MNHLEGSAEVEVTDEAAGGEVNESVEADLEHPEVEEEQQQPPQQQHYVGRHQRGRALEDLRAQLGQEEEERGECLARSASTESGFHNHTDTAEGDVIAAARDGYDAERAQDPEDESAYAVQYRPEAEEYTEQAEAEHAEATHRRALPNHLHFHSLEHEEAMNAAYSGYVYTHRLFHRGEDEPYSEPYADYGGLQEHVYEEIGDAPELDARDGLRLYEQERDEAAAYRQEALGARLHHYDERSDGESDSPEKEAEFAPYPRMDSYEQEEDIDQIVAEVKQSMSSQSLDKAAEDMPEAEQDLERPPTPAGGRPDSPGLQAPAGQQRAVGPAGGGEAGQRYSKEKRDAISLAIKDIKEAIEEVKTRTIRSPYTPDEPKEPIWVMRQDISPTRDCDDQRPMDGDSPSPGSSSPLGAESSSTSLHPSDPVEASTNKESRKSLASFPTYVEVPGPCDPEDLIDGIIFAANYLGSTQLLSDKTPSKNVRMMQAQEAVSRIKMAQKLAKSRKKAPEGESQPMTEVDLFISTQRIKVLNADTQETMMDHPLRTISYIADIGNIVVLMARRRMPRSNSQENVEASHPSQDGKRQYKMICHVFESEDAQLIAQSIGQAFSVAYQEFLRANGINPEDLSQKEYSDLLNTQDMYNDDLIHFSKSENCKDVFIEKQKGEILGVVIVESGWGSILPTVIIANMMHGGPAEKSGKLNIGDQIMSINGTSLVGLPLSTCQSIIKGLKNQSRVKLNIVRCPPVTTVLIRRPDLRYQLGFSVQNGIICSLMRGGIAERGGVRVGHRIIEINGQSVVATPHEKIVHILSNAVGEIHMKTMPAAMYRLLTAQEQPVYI

IC50 [1]: 12.1 µM (active)
IC50 [2]: > 50 µM (inactive)
Structure (SMILES): Cc1c(C)c2c(OCC(=O)Nc3cccnc3)cc3c(c2oc1=O)CCC(C)(C)O3

Structure (SMILES): CN(C)C=O.O=C(COC(=O)C12CC3CC(CC(Br)(C3)C1)C2)Nc1cccc(S(=O)(=O)N2CCOCC2)c1
EC50 [3]: 4.6 µM (active)

IC50 [4]: > 32 µM (inactive)
IC50 [5]: > 32 µM (inactive)
IC50 [6]: 2.29 µM (active)
IC50 [7]: 0.532 µM (active)
Structure (SMILES): COc1ccc(CN(CCNC(=O)c2ccc(CNS(=O)(=O)c3ccc(C)cc3)cc2)C(C)C)cc1

IC50 [8]: 55.5 µM (active)
IC50 [9]: > 100 µM (inactive)
Structure (SMILES): CCOC(=O)NC1(C(Cl)(Cl)Cl)Oc2ccc(Cl)cc2O1 (centres undefined)
